Data on 4 compounds can be found in patent US20190202820A1, “PROCESS FOR PRODUCING FLUORINATED COMPOUNDS USING ALCOHOL SOLVENT HAVING CARBONYL GROUP” (FUTURECHEM CO., LTD., priority 2018, published 2019).

“Also recorded” adds a separate entry of the source. Where two headings read alike, the source gives them in different places.

The data set is described as follows: Comparison of solubility of the precursor compound according to the kind of reaction solvent (observation with the naked eye). The class given is physicochemical. The note with it: for State of the solution when the temperature dropped to room temperature: t-amyl alcohol, then dropped to room temperature. As for the experimental part:
The solubility of FP-CIT, FDG, FLT, FMISO, and FC119S at room temperature and at 60° C. according to the different solvents of methyl 2-hydroxyisobutyrate solvent of the present invention and t-amyl alcohol solvent of the prior art (KR 10-0789847) was investigated.

Setting [1] is: reaction solvent methyl 2-hydroxyisobutyrate (present invention), precursor amount 4-20 mg, naked eye.
The mark [2] stands for this setting: reaction solvent methyl 2-hydroxyisobutyrate (present invention), room temperature, precursor amount 4-20 mg, naked eye.
Where [3] appears, read: reaction solvent t-amyl alcohol (KR 10-0789847), precursor amount 4-20 mg, naked eye.
Setting [4] is: reaction solvent t-amyl alcohol (KR 10-0789847), room temperature, precursor amount 4-20 mg, naked eye.

On to `CN(C(=O)OC(C)(C)C)c1ccc(-c2nc3ccc(OC[C@@H](COS(=O)(=O)c4ccc([N+](=O)[O-])cc4)OC4CCCCO4)cc3s2)cn1` (some centres unmarked) [FC119S], for which the “State of the solution after cooling to room temperature” value (methyl-2-hydroxyisobutyrate, dissolved at 60° C., then cooled to room temperature) is reported as “remained as a solution”. Besides, the “Solubility 60° C.” value is given as “dissolved” under setting [1] and “not dissolved; also recorded: undissolved” under setting [3]. Besides, the “Solubility Room temperature” value runs as follows: under setting [2], “undissolved”; under setting [4], “undissolved”.
Consider `CC(=O)OC[C@H]1O[C@@H](OC(C)=O)[C@@H](OS(=O)(=O)C(F)(F)F)[C@@H](OC(C)=O)[C@@H]1OC(C)=O` [FDG, 1,3,4,6-tetra-O-acetyl-2-O-trifluoro-methanesulfonyl-beta-D-mannopyranose], for which the “Solubility 60° C.” value is listed as “dissolved” under setting [1] and “dissolved” under setting [3]. For the same compound, the “Solubility Room temperature” value was “dissolved” under setting [2] and “undissolved” under setting [4]. Besides, the “State of the solution when the temperature dropped to room temperature” value (dissolved at 60° C.) is reported as “precipitated again as solids”.
In the case of `Cc1cn([C@H]2C[C@H](OS(=O)(=O)c3ccc([N+](=O)[O-])cc3)[C@@H](COC(c3ccccc3)(c3ccccc3)c3ccccc3)O2)c(=O)n(C(=O)OC(C)(C)C)c1=O` [FLT, 3-N-Boc-5′-O-trityl-3′-O-nosyl-thymidine], the “Solubility Room temperature” value is “undissolved” and the “State of the solution after cooling to room temperature” value is “remained as a solution”.
As to `COC(=O)[C@H]1[C@@H](c2ccc(I)cc2)C[C@@H]2CC[C@H]1[N+]21CCC1.Cc1ccc(S(=O)(=O)[O-])cc1` [FP-CIT, (1′R, 2′S, 3′S, 5′S)-3′-(4-iodophenyl)-2′-(methoxycarbonyl)spiro[azetidine-1,8′-bicyclo[3,2,1]octan]-1-ium p-toluenesulfonate], the “Solubility 60° C.” value is, setting by setting: under setting [1], “dissolved”; under setting [3], “dissolved”. For the same compound, the “Solubility Room temperature” value is listed as “completely dissolved” (reaction solvent methyl 2-hydroxyisobutyrate (present invention), room temperature, precursor amount 4-20 mg, naked eye, p-toluenesulfonate) and “undissolved” under setting [4]. The “State of the solution when the temperature dropped to room temperature” value (dissolved at 60° C.) was “precipitated again as solids”.
